Consider 57 compounds from patent US9315494B2, “Alkyl-amide-substituted pyridyl compounds useful as modulators of IL-12, IL-23 and/or IFNα responses” (Bristol-Myers Squibb Company, priority 2012, dated 2016).

pIC50: −log10 of the molar value.

Experiment [1] has as its system IFNα-stimulated STAT-dependent luciferase reporter in Kit225 T cells. Kind of experiment: Kit225 T cell assay, IFNα stimulated STAT-dependent luciferase reporter. Format: cell-based, human. The following applies: Kit225 T cells, 200 U/mL human recombinant IFNα, 5-6 hours, luciferase; read-out: IFNα (Kit225 T Cell Inhibition Data). On the procedure:
(§1) Kit225 T cells with a stably-integrated STAT-dependent luciferase reporter were plated in RPMI (Gibco) containing 10% heat-inactivated FBS (Gibco) and 100 U/mL PenStrep (Gibco). The cells were then stimulated with either 20 ng/mL human recombinant IL-23 or 200 U/mL human recombinant IFNα (PBL InterferonSource) for 5-6 hours. Luciferase expression was measured using the STEADY-GLO® Luciferase Assay System (Promega) according to the manufacturer's instructions.
On the technique in general: Reporter assays use an easily measured gene product as a stand-in for the process of interest.

Experiment [2] has as its system IL-23-stimulated STAT-dependent luciferase reporter in Kit225 T cells. Kind of experiment: Kit225 T cell assay, IL-23 stimulated STAT-dependent luciferase reporter. Format: cell-based, human. The note with it: Kit225 T cells, 20 ng/mL human recombinant IL-23, 5-6 hours, luciferase; read-out: IL23 (Kit225 T Cell Inhibition Data). On the procedure: as §1

For the compound `CNC(=O)c1cnc(Nc2cccc(F)n2)cc1Nc1cc(F)ccc1S(C)(=O)=O` [Example 54], the values for the pIC50 in experiment [1] and in experiment [2] were 6.80 and 6.72, respectively.
For `CNC(=O)c1cnc(Nc2ccc(F)cn2)cc1Nc1cc(F)ccc1S(C)(=O)=O` [Example 55], in that order: 6.77 and 6.89.
As to `CNC(=O)c1cnc(Nc2cc(C)ccn2)cc1Nc1cc(F)ccc1S(C)(=O)=O` [Example 56], the results for the pIC50 in experiment [1] and in experiment [2] were 7.30 and 6.92, respectively.
For `CNC(=O)c1cnc(Nc2cc(F)ccn2)cc1Nc1cc(F)ccc1S(C)(=O)=O` [Example 57] the same measures were 6.72 and 6.80.
Turning to `CNC(=O)c1cnc(Nc2cc(C#N)ccn2)cc1Nc1cc(F)ccc1S(C)(=O)=O` [Example 58], the figures for the pIC50 in experiment [1] and in experiment [2] were 6.85 and 6.66, respectively.
For `CNC(=O)c1cnc(Nc2ccc(C(F)(F)F)cn2)cc1Nc1ccccc1S(C)(=O)=O` [Example 59], in that order: 6.92 and 6.43.
For `CNC(=O)c1cnc(Nc2cc(C)c(F)cn2)cc1Nc1ccccc1S(C)(=O)=O` [Example 60], in that order: 7.40 and 7.22.
For `CNC(=O)c1cnc(Nc2ccc(F)cn2)cc1Nc1ccccc1C(N)=O` [Example 63] the same measures were 6.39 and 6.11.
On to `CNC(=O)c1cnc(Nc2ccc(F)cn2)cc1Nc1cc(F)ccc1F` [Example 64], for which the pIC50 was 5.04 in experiment [1] and 5.23 in experiment [2].
Turning to `CNC(=O)c1cnc(Nc2ccc(F)cn2)cc1Nc1ccccc1SC` [Example 65], the pIC50 in experiment [1] was 6.43; in experiment [2], 6.32.
Consider `CNC(=O)c1cnc(Nc2cccc(C)n2)cc1Nc1ccccc1C(N)=O` [Example 67], for which the pIC50 was 6.85 in experiment [1] and 6.58 in experiment [2].
For `CNC(=O)c1cnc(Nc2ccccn2)cc1Nc1ccccc1C(N)=O` [Example 68], the pIC50 in experiment [1] was 6.62; in experiment [2] it was 6.30.
For the compound `CNC(=O)c1cnc(Nc2ncccc2F)cc1Nc1ccccc1C(N)=O` [Example 69], the pIC50 in experiment [1] is 5.88; in experiment [2], 5.83.
For `CNC(=O)c1cnc(Nc2ccc(OC)cn2)cc1Nc1ccccc1C(N)=O` [Example 70] the same measures were 6.14 and 6.09.
As for `CNC(=O)c1cnc(Nc2cc(F)ccn2)cc1Nc1ccccc1C(N)=O` [Example 71], the pIC50 in experiment [1] was 6.12; in experiment [2], 6.24.
For `CNC(=O)c1cnc(Nc2ccc(C)cn2)cc1Nc1ccccc1C(N)=O` [Example 72] the same measures were 6.42 and 6.24.
For `CNC(=O)c1cnc(Nc2cccc(F)n2)cc1Nc1ccccc1C(N)=O` [Example 74] the same measures were 6.59 and 6.63.
For `CNC(=O)c1cnc(Nc2cc(-c3ccccc3)ccn2)cc1Nc1ccccc1C(N)=O` [Example 75], in that order: 5.76 and 5.69.
`CNC(=O)c1cnc(Nc2ccc(-c3ccccc3)cn2)cc1Nc1ccccc1C(N)=O` [Example 76]: the pIC50 in experiment [1] is 6.13; in experiment [2], 6.07.
For `CNC(=O)c1cnc(Nc2cccc(-c3ccccc3)n2)cc1Nc1ccccc1C(N)=O` [Example 77] the same measures were 6.46 and 6.27.
For `CNC(=O)c1cnc(Nc2cc(C)ccn2)cc1Nc1ccccc1C(N)=O` [Example 78] the same measures were 6.92 and 6.41.
For `CNC(=O)c1cnc(Nc2ccc(C(F)(F)F)cn2)cc1Nc1ccccc1C(N)=O` [Example 82] the same measures were 6.11 and 5.91.
Turning to `CNC(=O)c1cnc(Nc2ncccc2C)cc1Nc1ccccc1C(N)=O` [Example 83], the pIC50 is 5.16 in experiment [1] and 5.24 in experiment [2].
For `CNC(=O)c1cnc(Nc2cc(C#N)ccn2)cc1Nc1ccccc1C(N)=O` [Example 84], in that order: 6.46 and 6.43.
For `CNC(=O)c1cnc(Nc2ccc(N3CCOCC3)cn2)cc1Nc1ccccc1C(N)=O` [Example 85], in that order: 6.20 and 5.98.
For `CNC(=O)c1cnc(Nc2ccc(C#N)c(C)n2)cc1Nc1ccccc1C(N)=O` [Example 86] the same measures were 6.37 and 5.74.
Take `CNC(=O)c1cnc(Nc2ccc(S(=O)(=O)N(C)C)cn2)cc1Nc1ccccc1C(N)=O` [Example 88]: the pIC50 in experiment [1] was 6.05; in experiment [2], 5.54.
With `CNC(=O)c1cnc(Nc2cc3ccccc3cn2)cc1Nc1ccccc1C(N)=O` [Example 89], the pIC50 in experiment [1] was 6.43; in experiment [2], 6.47.
As to `CNC(=O)c1cnc(Nc2ncccc2Cl)cc1Nc1ccccc1C(N)=O` [Example 90], the figures for the pIC50 in experiment [1] and in experiment [2] were 5.08 and 5.14, respectively.
For `CNC(=O)c1cnc(Nc2cc(C(F)(F)F)ccn2)cc1Nc1ccccc1C(N)=O` [Example 91], in that order: 6.38 and 6.25.
For `CNC(=O)c1cnc(Nc2ccc(C#N)cn2)cc1Nc1ccccc1C(N)=O` [Example 92], in that order: 5.81 and 5.41.
Regarding `CNC(=O)c1cnc(Nc2cccc(C(F)(F)F)n2)cc1Nc1ccccc1C(N)=O` [Example 95], the pIC50 in experiment [1] was 6.17; in experiment [2], 6.02.
With `CNC(=O)c1cnc(Nc2ccc(F)cn2)cc1Nc1ccc(F)c(F)c1OC` [Example 96], the results for the pIC50 in experiment [1] and in experiment [2] were 6.68 and 6.59, respectively.
For `CNC(=O)c1cnc(Nc2cc(C(N)=O)ccn2)cc1Nc1ccc(Cl)cc1OC` [Example 97], in that order: 5.49 and 5.41.
For `CNC(=O)c1cnc(Nc2ccc(-n3ccccc3=O)cn2)cc1Nc1ccc(Cl)cc1OC` [Example 98] the same measures were 6.55 and 6.32.
As for `CNC(=O)c1cnc(Nc2ccc(F)cn2)cc1Nc1ccc(Cl)cc1OC` [Example 99], the pIC50 is 6.51 in experiment [1] and 6.32 in experiment [2].
For `CNC(=O)c1cnc(Nc2cc(C)ccn2)cc1Nc1ccc(F)c(F)c1OC` [Example 100], in that order: 6.92 and 6.80.
For `CNC(=O)c1cnc(Nc2ccc(N3CCOCC3)cn2)cc1Nc1ccc(F)c(F)c1OC` [Example 101], in that order: 7.10 and 6.70.
For `CNC(=O)c1cnc(Nc2ccc(N3C(=O)COCC3C)cn2)cc1Nc1ccc(Cl)cc1OC` (stereo not drawn) [Example 102], in that order: 6.82 and 6.43.
Regarding `CNC(=O)c1cnc(Nc2ccc(N3CCCCC3=O)cn2)cc1Nc1ccc(Cl)cc1OC` [Example 103], the pIC50 in experiment [1] is 6.48; in experiment [2], 6.40.
For `CNC(=O)c1cnc(Nc2ccc(N3CCOC3=O)cn2)cc1Nc1ccc(Cl)cc1OC` [Example 105], in that order: 6.72 and 6.41.
For the compound `CNC(=O)c1cnc(Nc2ccc(-n3cc(F)ccc3=O)cn2)cc1Nc1ccc(Cl)cc1OC` [Example 106], the pIC50 was 6.74 in experiment [1] and 6.36 in experiment [2].
On to `CNC(=O)c1cnc(Nc2cccc(OC)n2)cc1Nc1ccc(Cl)cc1OC` [Example 108], for which the pIC50 in experiment [1] was 6.64; in experiment [2], 6.43.
Take `CNC(=O)c1cnc(Nc2cccc(C)n2)cc1Nc1ccc(Cl)cc1OC` [Example 109]: the pIC50 is 6.68 in experiment [1] and 6.02 in experiment [2].
Take `CNC(=O)c1cnc(Nc2ccccn2)cc1Nc1ccc(Cl)cc1OC` [Example 110]: the pIC50 in experiment [1] was 6.38; in experiment [2], 6.00.
For `CNC(=O)c1cnc(Nc2ccc(C)cn2)cc1Nc1ccc(Cl)cc1OC` [Example 111] the same measures were 6.00 and 5.89.
For `CNC(=O)c1cnc(Nc2ccc(OC)cn2)cc1Nc1ccc(Cl)cc1OC` [Example 112] the same measures were 6.40 and 6.14.
Consider `CNC(=O)c1cnc(Nc2cc(C)ccn2)cc1Nc1ccc(Cl)cc1OC` [Example 113], for which the pIC50 in experiment [1] was 6.70; in experiment [2] it was 6.06.
In the case of `CNC(=O)c1cnc(Nc2ccc3[nH]ccc3n2)cc1Nc1ccc(Cl)cc1OC` [Example 114], the pIC50 in experiment [1] is 5.81; in experiment [2], 5.34.
Regarding `CNC(=O)c1cnc(Nc2cc(F)ccn2)cc1Nc1ccc(Cl)cc1OC` [Example 115], the pIC50 in experiment [1] was 6.36; in experiment [2], 6.20.
For `CNC(=O)c1cnc(Nc2cccc(-c3ccccc3)n2)cc1Nc1ccc(Cl)cc1OC` [Example 116] the same measures were 6.12 and 5.66.
`CNC(=O)c1cnc(Nc2cccc(C(F)(F)F)n2)cc1Nc1ccc(Cl)cc1OC` [Example 117]: the pIC50 in experiment [1] is 6.32; in experiment [2], 5.70.
For `CNC(=O)c1cnc(Nc2ccc(C#N)c(C)n2)cc1Nc1ccc(Cl)cc1OC` [Example 118] the same measures were 6.24 and 5.93.
For `CNC(=O)c1cnc(Nc2ccc(F)cn2)cc1Nc1ccc(F)cc1OC` [Example 119], in that order: 6.07 and 5.66.
For the compound `CNC(=O)c1cnc(Nc2ccc(C(F)(F)F)cn2)cc1Nc1ccc(Cl)cc1OC` [Example 120], the pIC50 in experiment [1] is 5.73; in experiment [2] it was 5.35.
For `CNC(=O)c1cnc(Nc2cc(C#N)ccn2)cc1Nc1ccc(Cl)cc1OC` [Example 121], in that order: 6.82 and 6.61.
Regarding `CNC(=O)c1cnc(Nc2ccc(F)cn2)cc1Nc1ccccc1OC(F)F` [Example 122], the values for the pIC50 in experiment [1] and in experiment [2] were 6.60 and 6.27, respectively.
